The nature of series [1]: Clinical study comparing bio-availability of two amlodipine formulations (with and without piperine). Type of series: in vivo, human (healthy volunteers). To be noted: with vs without piperine; amlodipine 10 mg, piperine 5 mg, hard gelatin capsules; 12 healthy volunteers. How it is done:
Dosage Form: Hard gelatin capsules
Amlodipine and piperine were milled. The two components were blended together.
The homogenecity of five random samples of the mixture was confirmed from reproducible analysis. The formulation was then encapsulated in hard gelatin capsule in hand-operated capsule filling machine.
To compare the bio-availability of two formulations containing amlodipine (with and without piperine) a clinical study was conducted in 12 healthy volunteers.

Series [2] is described as follows: Absorption of certain drugs through gastro-intestinal membranes. Details: species or system human. To be noted: through membranes of gastro-intestinal tract.
The nature of series [3]: Retention of certain drugs in the body. Details: species or system human. To be noted: combined with piperine.
In another series the test system is serum proteins. Kind of series: Binding of the serum proteins. The conditions noted are these: combined with drug. Details: species or system human.
Series [4] deals with natural immune mechanism of the body. Nature of the series: Stimulation of natural immune mechanism / antibody production. Also on record: species or system human.
A short description of series [5]: Intrinsic pharmaceutical or medicinal properties of piperine. To be noted: piperine alone.
For series [6] the following is noted: cited from earlier work.
For series [7] the following is noted: combined with known anti-tuberculosis and/or anti-leprosy drugs; cited from earlier work.
Series [8] in a line: Clinical trial comparing bio-availability of two pentazocine formulations (with and without piperine). To be noted: with vs without piperine; pentazocine 25 mg, piperine 5 mg, hard gelatin capsules; 12 healthy volunteers. It is filed as in vivo, human (healthy volunteers). The protocol: Pentazocine -- -- 25 mg.
Dosage Form: Hard gelatin capsules.
Both pentazocine and piperine were milled and were then blended together. With repeated sieving, both the components were mixed to a homogenous mixture. Five samples of mixtures were randomly selected and their homogenecity was confirmed by reproducible analysis. With the help of hand-operated capsule filling machine, the formulation was encapsulated in hard gelatin capsule.
A clinical trial was conducted in 12 healthy volunteers in order to compare the bio-availability of two formulations containing pentazocine (with and without piperine).

For `CCOC(=O)C1=C(COCCN)NC(C)=C(C(=O)OC)C1c1ccccc1Cl` (stereo not shown) [Amlodipine], the “blood levels of the active ingredient amlodipine” value in [1] is listed as “increased blood levels”.

As to `O=C(/C=C/C=C/c1ccc2c(c1)OCO2)N1CCCCC1` [Piperine], the “absorption of certain drugs” value in [2] is “increase the absorption of certain drugs”. The “retention of certain drugs in the human body” value in [3] was “retain certain drugs when combined with it in the human body for a longer period of time”. Besides, the “binding of the serum proteins” value with serum proteins was “increase the binding of the serum proteins”. Moreover, the “stimulation of natural immune mechanism, production of antibodies against microbial infections” value in series [4] is given as “stimulate the natural immune mechanism of the body so as to enhance the production of antibodies against microbial infections”. In series [5], the “pharmaceutical or medicinal properties of piperine as such” value was “does not have any pharmaceutical or medicinal properties”. Also, the “solubility in organic solvents” value in series [6] (benzene, chloroform, ether, ethyl acetate, dichloromethane, alcohol, acetic acid) was “soluble in benzene, chloroform, ether, ethyl acetate, dichloromethane, alcohol, acetic acid”. For the same molecule, the “solubility in water and petroleum ether” value in series [6] (water, petroleum ether) was “insoluble in water, and petroleum ether”. Also, in series [7], the “therapeutic efficacy of anti-tuberculosis and/or anti-leprosy drugs” value is “increased therapeutic efficacy”.

For `CC(C)=CCN1CCC2(C)c3cc(O)ccc3CC1C2C` (stereo not shown) [pentazocine], in [8], the “blood levels of the active ingredient pentazocine” value was “increased blood levels”.

Source of the values: US5616593A, “Compositions containing piperine” (priority 1993, dated 1997).
